{"source": "ChEMBL document CHEMBL1133193", "about": "“4-[3-(5,6,7,8-Tetrahydro-5,5,8,8-tetramethyl-2-naphthalenyl)phenyl]benzoic acid and heterocyclic-bridged analogues are novel retinoic acid receptor subtype and retinoid X receptor alpha agonists” (Bioorg Med Chem Lett, 2000)", "key": {"[1]": {"biological_target": "T1, Retinoic acid receptor gamma (Homo sapiens, UniProt P13631)", "T1 sequence (P13631 whole entry)": "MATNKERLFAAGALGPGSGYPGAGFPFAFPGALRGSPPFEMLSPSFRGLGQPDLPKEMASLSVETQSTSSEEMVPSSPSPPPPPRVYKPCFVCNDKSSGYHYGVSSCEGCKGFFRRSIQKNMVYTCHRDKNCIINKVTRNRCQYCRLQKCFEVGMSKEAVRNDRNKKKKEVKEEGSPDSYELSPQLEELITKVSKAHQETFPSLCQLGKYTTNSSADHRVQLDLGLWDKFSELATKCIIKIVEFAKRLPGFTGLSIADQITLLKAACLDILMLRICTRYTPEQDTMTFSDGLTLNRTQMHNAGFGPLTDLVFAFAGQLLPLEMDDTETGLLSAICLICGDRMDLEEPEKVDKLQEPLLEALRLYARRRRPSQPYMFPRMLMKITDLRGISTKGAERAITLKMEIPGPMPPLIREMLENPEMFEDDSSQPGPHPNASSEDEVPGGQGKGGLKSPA", "assay": "Transcriptional activation in CV-1 cells expressing retinoic acid gamma receptor", "type": "cell-based, Cercopithecidae"}, "[2]": {"biological_target": "T2, Retinoic acid receptor beta (Homo sapiens, UniProt P10826)", "T2 sequence (P10826 whole entry)": "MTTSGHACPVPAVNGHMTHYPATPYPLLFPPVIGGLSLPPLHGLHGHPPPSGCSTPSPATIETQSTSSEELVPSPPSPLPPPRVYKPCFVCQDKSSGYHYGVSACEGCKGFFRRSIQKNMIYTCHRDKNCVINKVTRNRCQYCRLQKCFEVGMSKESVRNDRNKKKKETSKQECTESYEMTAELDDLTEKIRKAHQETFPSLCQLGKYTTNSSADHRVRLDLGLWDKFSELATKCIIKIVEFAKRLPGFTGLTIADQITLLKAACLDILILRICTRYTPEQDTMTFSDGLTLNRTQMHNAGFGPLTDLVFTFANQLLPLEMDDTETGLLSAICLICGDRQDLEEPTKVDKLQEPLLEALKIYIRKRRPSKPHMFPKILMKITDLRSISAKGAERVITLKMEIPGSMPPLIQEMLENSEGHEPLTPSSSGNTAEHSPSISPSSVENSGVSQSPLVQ", "assay": "Transcriptional activation in CV-1 cells expressing Retinoic acid receptor beta", "type": "cell-based, Cercopithecidae"}, "MDA-MB-231": {"tested_on": "MDA-MB-231", "assay": "Growth of MDA-MB-231 retinoid resistant breast carcinoma cells at 1 uM", "settings": "Homo sapiens"}, "[3]": {"biological_target": "T3, Retinoic acid receptor RXR-alpha (Homo sapiens, UniProt P19793)", "T3 sequence (P19793 whole entry)": "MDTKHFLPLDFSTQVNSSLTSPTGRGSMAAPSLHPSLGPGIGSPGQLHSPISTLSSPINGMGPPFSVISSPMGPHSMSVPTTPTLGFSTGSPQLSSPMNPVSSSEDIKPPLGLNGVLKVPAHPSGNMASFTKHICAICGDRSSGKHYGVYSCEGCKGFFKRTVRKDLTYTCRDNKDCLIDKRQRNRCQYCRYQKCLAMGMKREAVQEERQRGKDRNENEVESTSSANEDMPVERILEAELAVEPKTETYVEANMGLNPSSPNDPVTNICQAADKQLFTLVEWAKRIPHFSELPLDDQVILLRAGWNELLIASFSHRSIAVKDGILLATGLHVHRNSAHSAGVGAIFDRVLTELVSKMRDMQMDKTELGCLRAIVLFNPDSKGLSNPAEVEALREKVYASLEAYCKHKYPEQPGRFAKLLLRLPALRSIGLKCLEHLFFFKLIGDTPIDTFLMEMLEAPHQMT", "assay": "Transcriptional activation in CV-1 cells expressing Retinoic acid receptor RXR-alpha", "type": "cell-based, Cercopithecidae"}, "[4]": {"biological_target": "T4, Retinoic acid receptor alpha (Homo sapiens, UniProt P10276)", "T4 sequence (P10276 whole entry)": "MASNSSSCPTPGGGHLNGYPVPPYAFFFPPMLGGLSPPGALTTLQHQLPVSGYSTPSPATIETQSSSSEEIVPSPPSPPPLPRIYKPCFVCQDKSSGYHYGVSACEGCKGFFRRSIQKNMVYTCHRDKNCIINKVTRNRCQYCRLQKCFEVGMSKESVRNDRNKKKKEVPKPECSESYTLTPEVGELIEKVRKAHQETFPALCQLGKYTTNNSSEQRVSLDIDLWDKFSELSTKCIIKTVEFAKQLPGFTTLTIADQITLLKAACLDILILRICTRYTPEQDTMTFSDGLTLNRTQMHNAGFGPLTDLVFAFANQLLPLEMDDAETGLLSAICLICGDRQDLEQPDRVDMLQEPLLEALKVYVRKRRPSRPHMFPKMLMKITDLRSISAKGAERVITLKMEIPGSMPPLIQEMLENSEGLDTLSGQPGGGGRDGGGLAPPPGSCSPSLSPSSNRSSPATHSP", "assay": "Transcriptional activation in CV-1 cells expressing Retinoic acid receptor alpha", "type": "cell-based, Cercopithecidae"}, "ZR-75-1": {"tested_on": "ZR-75-1", "assay": "Inhibition of ZR-75-1 retinoid sensitive breast carcinoma cell proliferation at 1 uM", "type": "functional", "settings": "Homo sapiens"}, "T47D": {"tested_on": "T47D", "assay": "Inhibition of T47D retinoid sensitive breast carcinoma cell proliferation at 1 uM", "type": "functional", "settings": "Homo sapiens"}, "[5]": {"biological_target": "T5, Retinoic acid receptor RXR-alpha (Homo sapiens) (UniProt P19793)", "T5 sequence (whole entry)": "T3 sequence (P19793 whole entry)", "assay": "Percent activation of Retinoic acid receptor RXR-alpha at 1 uM relative to 1 uM 9-cis-retinoic acid"}}}
{"smiles": "CC1(C)CCC(C)(C)c2cc(-c3cccc(-c4ccc(C(=O)O)cc4)c3)ccc21", "values": [{"measurement": "AC50", "setting": "[1]", "value": 2.3, "unit": "nM"}, {"measurement": "AC50", "setting": "[2]", "value": 4.3, "unit": "nM"}, {"measurement": "growth relative to control at 1 µM", "setting": "MDA-MB-231", "value": 80, "unit": "%"}, {"measurement": "AC50", "setting": "[3]", "value": "> 1000", "unit": "nM"}, {"measurement": "AC50", "setting": "[4]", "value": 1, "unit": "nM"}, {"measurement": "inhibition at 1 µM", "setting": "ZR-75-1", "value": 47, "unit": "%"}, {"measurement": "inhibition at 1 µM", "setting": "T47D", "value": 32, "unit": "%"}, {"measurement": "Activation", "setting": "[5]", "value": 27, "unit": "%"}]}
{"smiles": "Cc1cc2c(cc1-c1cccc(-c3ccc(C(=O)O)cc3)n1)C(C)(C)CCC2(C)C", "values": [{"measurement": "AC50", "setting": "[1]", "value": 1000, "unit": "nM"}, {"measurement": "AC50", "setting": "[2]", "value": "> 1000", "unit": "nM"}, {"measurement": "AC50", "setting": "[3]", "value": "> 1000", "unit": "nM"}, {"measurement": "AC50", "setting": "[4]", "value": "> 1000", "unit": "nM"}, {"measurement": "Activation", "setting": "[5]", "value": 0, "unit": "%"}]}
{"smiles": "CC1(C)CCC(C)(C)c2cc(-c3ccc4cc(C(=O)O)ccc4c3)ccc21", "values": [{"measurement": "AC50", "setting": "[1]", "value": 68, "unit": "nM"}, {"measurement": "AC50", "setting": "[2]", "value": 52, "unit": "nM"}, {"measurement": "AC50", "setting": "[3]", "value": "> 1000", "unit": "nM"}, {"measurement": "AC50", "setting": "[4]", "value": "> 1000", "unit": "nM"}, {"measurement": "Activation", "setting": "[5]", "value": 0, "unit": "%"}]}
{"smiles": "Cc1ccc(-c2ccc(C(=O)O)cc2)cc1-c1ccc2c(c1)C(C)(C)CCC2(C)C", "values": [{"measurement": "AC50", "setting": "[1]", "value": "< 1", "unit": "nM"}, {"measurement": "AC50", "setting": "[2]", "value": "< 1", "unit": "nM"}, {"measurement": "growth relative to control at 1 µM", "setting": "MDA-MB-231", "value": 75, "unit": "%"}, {"measurement": "AC50", "setting": "[3]", "value": 135, "unit": "nM"}, {"measurement": "AC50", "setting": "[4]", "value": 79, "unit": "nM"}, {"measurement": "inhibition at 1 µM", "setting": "ZR-75-1", "value": 49, "unit": "%"}, {"measurement": "inhibition at 1 µM", "setting": "T47D", "value": 35, "unit": "%"}, {"measurement": "Activation", "setting": "[5]", "value": 85, "unit": "%"}]}
{"smiles": "Cc1ccc(-c2ccc(C(=O)O)cc2)cc1-c1cc2c(cc1C)C(C)(C)CCC2(C)C", "values": [{"measurement": "AC50", "setting": "[1]", "value": 1, "unit": "nM"}, {"measurement": "AC50", "setting": "[2]", "value": 10, "unit": "nM"}, {"measurement": "AC50", "setting": "[3]", "value": 430, "unit": "nM"}, {"measurement": "AC50", "setting": "[4]", "value": "> 1000", "unit": "nM"}, {"measurement": "Activation", "setting": "[5]", "value": 70, "unit": "%"}]}
{"smiles": "Cc1cc2c(cc1-c1ncc(-c3ccc(C(=O)O)cc3)s1)C(C)(C)CCC2(C)C", "values": [{"measurement": "AC50", "setting": "[1]", "value": 220, "unit": "nM"}, {"measurement": "AC50", "setting": "[2]", "value": 740, "unit": "nM"}, {"measurement": "AC50", "setting": "[3]", "value": "> 1000", "unit": "nM"}, {"measurement": "AC50", "setting": "[4]", "value": "> 1000", "unit": "nM"}, {"measurement": "Activation", "setting": "[5]", "value": 8, "unit": "%"}]}
{"smiles": "CC1(C)CCC(C)(C)c2cc(-c3cccc(-c4ccc(C(=O)O)cc4)n3)ccc21", "values": [{"measurement": "AC50", "setting": "[1]", "value": "> 1000", "unit": "nM"}, {"measurement": "AC50", "setting": "[2]", "value": 140, "unit": "nM"}, {"measurement": "AC50", "setting": "[3]", "value": "> 1000", "unit": "nM"}, {"measurement": "AC50", "setting": "[4]", "value": 370, "unit": "nM"}, {"measurement": "Activation", "setting": "[5]", "value": 17, "unit": "%"}]}
{"smiles": "CC1=C(/C=C/C(C)=C\\C=C\\C(C)=C\\C(=O)O)C(C)(C)CCC1", "note": "[ALITRETINOIN]", "values": [{"measurement": "growth relative to control at 1 µM", "setting": "MDA-MB-231", "value": 69, "unit": "%"}, {"measurement": "inhibition at 1 µM", "setting": "ZR-75-1", "value": 59, "unit": "%"}, {"measurement": "inhibition at 1 µM", "setting": "T47D", "value": 35, "unit": "%"}]}
{"smiles": "CC1=C(/C=C/C(C)=C/C=C/C(C)=C/C(=O)O)C(C)(C)CCC1", "note": "[TRETINOIN]", "values": [{"measurement": "growth relative to control at 1 µM", "setting": "MDA-MB-231", "value": 94, "unit": "%"}, {"measurement": "inhibition at 1 µM", "setting": "ZR-75-1", "value": 70, "unit": "%"}, {"measurement": "inhibition at 1 µM", "setting": "T47D", "value": 39, "unit": "%"}]}
{"smiles": "C/C(=C\\c1ccc(C(=O)O)cc1)c1ccc2c(c1)C(C)(C)CCC2(C)C", "values": [{"measurement": "AC50", "setting": "[3]", "value": "> 1000", "unit": "nM"}, {"measurement": "Activation", "setting": "[5]", "value": 0, "unit": "%"}]}
